Marks after values point to notes of the source that are not given here.
Key:
human primary monocytes = assay: static adhesion of fMLP-stimulated monocytes to fibrinogen; assay type: cell-based; design: fMLP-triggered static adhesion to fibrinogen: unit not given here; conditions: CTRL 100; for fMLP-triggered static adhesion to fibrinogen: monocytes; for fMLP-induced adhesion to fibrinogen: 40 μM P1 or P1-TKIP, 100 μM AG490, 200 μM WHI-P154, 1 hour, 50 nM fMLP 60 sec
Protocol: We investigated the functional effect of PTPRG activation on integrin activation and mediated adhesion by chemoattractants in human primary monocytes and PMNs in a static and flow adhesion assays. Briefly, human primary monocytes or polymorphonuclear cells were suspended at 5×10^6/ml in standard adhesion buffer. Adhesion assays were performed on 18-well glass slides coated with 1 mg/ml human fibrinogen or with 1 μg/ml human ICAM-1 in PBS; 20 μl of cell suspension were added to the coated wells and stimulated for 1 min at 37° C. with 5 μl of fMLP, 0.05 μM final concentration. After rapid washing, adherent cells were fixed in ice-cold 1.5% glutaraldehyde in PBS, and still images of adherent cells in 0.2 mm^2 fields were acquired al 20× phase contrast magnification, NA 0.40, with a charge-coupled device camera (ICD-42B; Ikegami) connected to an inverted microscope (IX50; Olympus). Image acquisition and computer-assisted enumeration of adherent cells were performed with ImageJ (National Institute of Health). […]
To evaluate whether JAK2 mediates chemoattractant-induced adhesion of human monocytes to beta-2 integrin substrates human monocytes were treated control buffer or P1 or with the three JAK inhibitors. Briefly, human monocytes were treated with buffer (CTRL=control), or 40 μM P1 or P1-TKIP peptides, 100 μM AG490 or 200 μM WHI-P154 for 1 hour at 37° C. and stimulated with 50 nM fMLP for 60 sec.; data are mean and standard deviation (SD) of 6 experiments in triplicate.

JAK2 = biological target: T1, JAK2 (Homo sapiens, UniProt O60674); assay: phospho-JAK2 Western Blot on monocytes; assay type: cell-based; conditions: 50 nM fMLP 180 sec
T1 construct: endogenous in cells; host or cells: human primary monocytes
Description: JAK2 regulation by PTPRG as assessed through the high-throughput phospho-proteomics analysis evidenced that PTPRG activation (Example 4, Table 9 and 10) provides a useful example of the exploitation of this analysis system for identification of targets and unexpected indications/uses for known and novel agents that regulate the phoshoproteome. […] Furthermore, the capability of fMLP to trigger JAKs activation has never been observed. The results described in Example 4 unexpectedly implicate JAK2 de-phosphorylation by PTPRG as playing a role in the anti-adhesive role of PTPRG on monocytes. To test this system-generated hypothesis we first set out to define the role of JAK2 in fMLP-triggered rapid adhesion in monocytes. Time course experiments, either performed with ELISA assay or Western Blot. Briefly, purified human monocytes were treated with buffer (resting) or with 50 nM fMLP for the indicated times (Table 12), and the phosphorylation was assessed by p-Jak2 elisa and Western Blot analysis. The JAK2 activation was determined with Elisa Kit JAK2 (pYpY1007/1008) (Invitrogen). Briefly, cells were stimulated with agonist and lysed following manufacturer's protocol; levels of phospho-JAK2 were quantified (absorbance at 450 nm) with a micro-well plate reader (Victor™ X5 Multilabel Plate Reader, Perkin Elmer). For Western blot analysis, cells were lysed in ice-cold 1% Nonidet P-40 buffer, containing phosphatase inhibitors and complete protease inhibitor cocktail (Roche). Total cell lysates were quantified by Bradford assay (Bio-Rad). Equal amounts of total lysates or of isolated membranes (as described in Example 1) were subjected to 10% SDS-PAGE and then blotted. After incubation with anti-PTPRG, anti gp91^Phox, anti phospho-JAK2, anti JAK2 and HRP-linked secondary antibodies (GE Healthcare), immunoreactive bands were visualized by ECL detection (EMD Millipore). Intensities of band signals were quantified by densitometric analysis (Quantity One, Bio-Rad) by using ImageQuant Las4000. Data are mean value of three experiments; the relative ratio of the band intensity of phosphor-JAK2 was normalized to the level of JAK2 band intensities.
To evaluate whether JAK2 mediates fMLP-triggered rapid adhesion in human monocytes, we tested the capability of three JAK inhibitors, AG490, WHI-P154 and P1-TKIP peptide, to block adhesion triggering. Briefly, Monocytes were treated with buffer (resting and Control=CTRL), 100 μM AG490, 40 μM P1 or P1-TKIP peptides, or 200 μM WHI-P154 for 1 hour at 37° C. and stimulated with 50 nM fMLP for 180 sec. Cell lysates were probed with anti phospho-JAK2 and with anti JAK2. Western Blot immuoreactive band quantification; the relative ratio of the band intensity of phospho-JAK2 was normalized to the level of JAK2 band intensities; mean values of three experiments (Table 13).
The impact of TAT-ICD and P1-WD on JAK2 activation by chemoattractants was also evaluated by Western Blot analysis. Briefly, monocytes were treated with buffer (Resting, CTRL), 0.5 uM TAT-ICD, 50 μM TAT peptide, 50 μM P1-WD, P1 or P1-WD scrambled peptides for 1 hour at 37° C. and stimulated with 50 nM fMLP for 180 sec (the resting cells were not stimulated with fMLP). Total lysates were probed with anti phospho-JAK2 or with anti JAK. Western Blot immunoreactive bands were quantified and the relative ratio of the band intensity of phospho-JAK2 was normalized to the level of JAK2 band intensities; data are mean value and standard deviation of three experiments (Table 19).

LFA-1 = LFA-1 high affinity state detection with 327C mAb; assay type: cell-based, human; conditions: CTRL 100; for LFA-1 high affinity state, mean fluorescence intensity relative to the fMLP-stimulated control: monocytes, 50 nM fMLP 1 min, concentration not given; for LFA-1 high affinity state, percentages of fold increases over the control: 40 μM P1 or P1-TKIP, 100 μM AG490, 200 μM WHI-P154, 1 hour, 50 nM fMLP 60 sec; for LFA-1 high affinity state, percentages of fold-increase over control: 50 μM TAT peptides or 0.5 μM TAT-ICD, 1 hour, 50 nM fMLP 60 seconds
Protocol: The ability of P1-WD to inhibit triggering of LFA-1 to a high-affinity state was assessed using a specific reporter monoclonal antibody 327C, which detects the fully extended LFA-1 conformational epitope corresponding to heterodimer high affinity state. Briefly, freshly isolated human monocytes were suspended in standard adhesion buffer at 2×10^6/ml were stimulated under stirring at 37° C. for 1 min with 50 nM fMLP in the presence of 10 µg/ml 327C mAb. After rapid washing, the cells were stained with FITC-conjugated secondary antibody and analyzed by cytofluorimetric quantification (Table 4). Data are mean fluorescence intensity measured by flow cytometry relative to the fMLP-stimulated control (CTRL) cells.
The ability of TAT-ICD to trigger the high affinity state of LFA-1 was tested as described in Example 2, Table 4 and the results are in Table 8. Human monocytes were treated with buffer (CTRL), 50 μM TAT peptides, or 0.5 μM TAT-ICD for 1 hour at 37° C. and stimulated with 50 nM fMLP for 60 seconds. Data are the percentages of fold-increase over control; mean values of 6 experiments
Briefly, LFA-1 high affinity state detection. Human monocytes were treated with buffer (CTRL=control), 40 μM P1 or P1-TKIP peptides, 100 μM AG490 or 200 μM WHI-P154 for 1 hour at 37° C. and stimulated with 50 nM fMLP for 60 sec. LFA-1 high affinity state conformer was detected by cytofluorimetric analysis with 327C antibody. Shown are percentages of fold increases over the control; mean values of 5 experiments.

[1] = 0.5 uM TAT-ICD, 50 μM TAT, 50 μM P1-WD, P1 or P1-WD scrambled, 1 hour, CTRL 50, Resting 8
[2] = 100 μM AG490, 40 μM P1 or P1-TKIP, 200 μM WHI-P154, 1 hour, CTRL 207.7, Resting 18.8

T1 sequence (O60674 whole entry): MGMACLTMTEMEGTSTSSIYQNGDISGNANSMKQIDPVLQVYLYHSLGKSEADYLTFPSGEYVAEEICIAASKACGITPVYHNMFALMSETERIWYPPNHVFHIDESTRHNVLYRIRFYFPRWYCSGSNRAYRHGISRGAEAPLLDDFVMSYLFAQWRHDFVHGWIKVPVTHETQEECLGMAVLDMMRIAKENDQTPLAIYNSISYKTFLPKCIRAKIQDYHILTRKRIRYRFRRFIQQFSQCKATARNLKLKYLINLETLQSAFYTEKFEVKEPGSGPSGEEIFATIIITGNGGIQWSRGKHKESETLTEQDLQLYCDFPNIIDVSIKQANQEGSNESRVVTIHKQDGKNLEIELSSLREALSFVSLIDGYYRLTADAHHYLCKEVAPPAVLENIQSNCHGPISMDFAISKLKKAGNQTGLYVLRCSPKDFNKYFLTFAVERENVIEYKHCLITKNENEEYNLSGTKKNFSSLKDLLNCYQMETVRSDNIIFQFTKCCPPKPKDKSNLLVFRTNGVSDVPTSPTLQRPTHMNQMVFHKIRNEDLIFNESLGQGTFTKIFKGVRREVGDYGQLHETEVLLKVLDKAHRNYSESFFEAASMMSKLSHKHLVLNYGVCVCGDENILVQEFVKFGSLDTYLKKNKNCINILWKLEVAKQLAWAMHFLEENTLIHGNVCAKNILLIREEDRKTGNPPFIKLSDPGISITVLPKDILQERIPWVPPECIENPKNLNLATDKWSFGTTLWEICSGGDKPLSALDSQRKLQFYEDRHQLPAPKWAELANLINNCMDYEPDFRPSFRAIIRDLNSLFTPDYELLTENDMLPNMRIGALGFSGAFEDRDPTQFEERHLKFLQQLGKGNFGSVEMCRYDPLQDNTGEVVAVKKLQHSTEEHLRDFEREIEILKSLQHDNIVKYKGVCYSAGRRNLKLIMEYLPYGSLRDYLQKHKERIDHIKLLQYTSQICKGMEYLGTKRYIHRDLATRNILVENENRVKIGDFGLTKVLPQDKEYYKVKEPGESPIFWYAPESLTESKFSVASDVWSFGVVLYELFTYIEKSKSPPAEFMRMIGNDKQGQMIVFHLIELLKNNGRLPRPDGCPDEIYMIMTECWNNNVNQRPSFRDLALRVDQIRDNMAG

Molecule: P1-WD: fusion Trojan peptide SEQ ID 3: Penetratin, glycine, PTPRG wedge domain aa 831-856; RQIKIWFQNRRMKWKKGKQFVKHIGELYSNNQHGFSEDFEEVQ (listed as Homo sapiens)
- fMLP-triggered static adhesion to fibrinogen (human primary monocytes; P1-WD 10 micromolar): 41
- fMLP-triggered static adhesion to fibrinogen (human primary monocytes; P1-WD 25 micromolar): 18
- fMLP-triggered static adhesion to fibrinogen (human primary monocytes; P1-WD 50 micromolar): 16
- phospho-JAK2 band intensity normalized to JAK2, Western Blot (JAK2; [1]): 12*
- LFA-1 high affinity state, mean fluorescence intensity relative to the fMLP-stimulated control (LFA-1): 22

Molecule: P1: Penetratin delivery peptide, 16 aa RQIKIWFQNRRMKWKK (SEQ ID 4), control [reference compound]
- fMLP-induced adhesion to fibrinogen (human primary monocytes): 110%
- fMLP-triggered static adhesion to fibrinogen (human primary monocytes; control peptide, concentration not given): 94
- phospho-JAK2 band intensity normalized to JAK2, Western Blot (JAK2; [1]): 49
- phospho-JAK2 band intensity normalized to JAK2, Western Blot (JAK2; [2]): 111.4
- LFA-1 high affinity state, percentages of fold increases over the control (LFA-1): 90%
- LFA-1 high affinity state, mean fluorescence intensity relative to the fMLP-stimulated control (LFA-1): 91

Molecule: TAT-ICD: fusion recombinant protein SEQ ID 5: PTPRG intracellular domain aa 797-1445 fused to 13 aa TAT sequence
- fMLP-triggered static adhesion to fibrinogen (human primary monocytes; 0.01 μM): 45.4
- fMLP-triggered static adhesion to fibrinogen (human primary monocytes; 0.05 μM): 35.5
- fMLP-triggered static adhesion to fibrinogen (human primary monocytes; 0.10 μM): 27.9
- fMLP-triggered static adhesion to fibrinogen (human primary monocytes; 0.5 μM): 20.1
- fMLP-triggered static adhesion to fibrinogen (human primary monocytes; 1 μM): 14.0
- phospho-JAK2 band intensity normalized to JAK2, Western Blot (JAK2; [1]): 15*
- LFA-1 high affinity state, percentages of fold-increase over control (LFA-1): 24.3%

Molecule: TAT (GRKKRRQRRRPPQ; listed as Homo sapiens) [reference compound]
- fMLP-triggered static adhesion to fibrinogen (human primary monocytes; 0.5 μM): 100
- fMLP-triggered static adhesion to fibrinogen (human primary monocytes; 1 μM): 98
- phospho-JAK2 band intensity normalized to JAK2, Western Blot (JAK2; [1]): 40
- LFA-1 high affinity state, percentages of fold-increase over control (LFA-1): 85.3%

Molecule: N#C/C(=C/c1ccc(O)c(O)c1)C(=O)NCc1ccccc1 [AG490]
- fMLP-induced adhesion to fibrinogen (human primary monocytes): 32.8%
- phospho-JAK2 band intensity normalized to JAK2, Western Blot (JAK2; [2]): 9.2
- LFA-1 high affinity state, percentages of fold increases over the control (LFA-1): 66%

Molecule: COc1cc2ncnc(Nc3ccc(O)c(Br)c3)c2cc1OC [WHI-P154]
- fMLP-induced adhesion to fibrinogen (human primary monocytes): 18%
- phospho-JAK2 band intensity normalized to JAK2, Western Blot (JAK2; [2]): 4.9
- LFA-1 high affinity state, percentages of fold increases over the control (LFA-1): 58%

Reference: patent US10898548B2, “Modulators of protein tyrosine phosphatase and uses thereof” (LEUVAS THERAPEUTICS, priority 2015, dated 2021)
